Literature values, collected in patent publication US11730619B2, “Systems and methods for determining failure of intragastric devices” (RESHAPE LIFESCIENCES INC., priority 2015, dated 2023).
Structures can show the parent of a compound that is named as a salt. Where two headings read alike, the source gives them in different places.

Legend:
[1] = for Solubility: solvent not given
[2] = Meng et al. 2013
[3] = cell wraps: Generally well-tolerated in patients; Merck Index
[4] = pH 3

Cc1cc2nc3c(=O)[nH]c(=O)nc-3n(C)c2cc1C [Lumiflavine]
Solubility [1]: poor solubility | Solubility in water ([1]; water, Merck Index): Very sparingly soluble in water

CN(C)c1ccc2nc3ccc(=[N+](C)C)cc-3sc2c1 [methylene blue]
Conversion on passage through the gastrointestinal tract [2]: reduced to leukomethylene blue

O=C(O)c1cc(O)c2c(c1)[C@@H]([C@H]1c3cc(C(=O)O)cc(O)c3C(=O)c3c(O[C@@H]4O[C@H](CO)[C@@H](O)[C@H](O)[C@H]4O)cccc31)c1cccc(O[C@@H]3O[C@H](CO)[C@@H](O)[C@H](O)[C@H]3O)c1C2=O [Sennoside B]
Solubility in water relative to Sennoside A ([1]; cell wraps: more soluble in water than Sennoside A, Merck): Sennoside B is more

O=C1/C(=C2\Nc3ccc(S(=O)(=O)[O-])cc3C2=O)Nc2ccc(S(=O)(=O)[O-])cc21.[Na+].[Na+] [Indigo carmine]
LD50 (rat, oral) (rat; rat, oral, Baker MSDS sheet): 2000 mg/kg (Baker MSDS sheet)

CN(C)CCC=C1c2ccccc2CCc2ccccc21 [Amitriptyline Hydrochloride]
LD50 (rats) (rat; rats, second of two values, Merck Index): 380 mg/kg | Solubility in water ([1]; water, Merck Index): Salt is freely soluble in

Cc1cc2nc3c(=O)[nH]c(=O)nc-3n(C[C@H](O)[C@H](O)[C@H](O)CO)c2cc1C [B vitamins (e.g. Riboflavin), Riboflavin]
Solubility in water ([1]; Merck Index): Solubility: 1 g in 3 L g in 3 L water

COc1ccccc1OCC(O)COC(N)=O (centres unmarked) [Methocarbamol]
Tolerability in patients [3]: Generally well- | Water solubility ([1]; @ 20° C., Merck Index): Water soluble 2.5 g/100 g/100 mL

Betalain [Betalain (including betanin)]
pH range of stability [4]: Stable between pH 3

O=C(O)c1cc(O)c2c(c1)[C@H]([C@H]1c3cc(C(=O)O)cc(O)c3C(=O)c3c(O[C@@H]4O[C@H](CO)[C@@H](O)[C@H](O)[C@H]4O)cccc31)c1cccc(O[C@@H]3O[C@H](CO)[C@@H](O)[C@H](O)[C@H]3O)c1C2=O [Sennoside A]
Solubility in water ([1]; water, Merck Index): insoluble in water.

CN(C)c1ccc2c(c1)Sc1cc(N(C)C)ccc1N2 [Leukomethylene blue]
Excretion in urine ([2]; stabilized in the urine): excreted mostly unaltered

Cc1cc2nc3[nH]c(=O)[nH]c(=O)c3nc2cc1C [Lumichrome]
Solubility in hot water ([1]; hot water, Merck Index): Sparingly soluble in hot water | Solubility [1]: poor solubility

Nc1nc(N)c2nc(-c3ccccc3)c(N)nc2n1 [Triamterene]
Tolerability in patients [3]: Generally well- | Solubility: parts water in which 1 part is soluble ([1]; 1 part soluble in 1000 parts water, Merck Index): 1 part soluble in 1000 parts water
